Data: patent US20120165304A1, “6,7,8,9-Tetrahydro-5H-1,4,7,10a-tetraaza-cyclohept[f]indene derivatives, pharmaceutical compositions containing these compounds, their use and processes for preparing them” (BOEHRINGER INGELHEIM INTERNATIONAL GMBH, priority 2008, published 2012)
pEC50: −log10 of the molar value.

Target: human 5-HT2C receptor (Homo sapiens, UniProt P28335, I156V/I160V/N158S)
Assay: cell-based

Sequence of human 5-HT2C receptor (P28335 33-458 I156V/N158S/I160V limits assumed): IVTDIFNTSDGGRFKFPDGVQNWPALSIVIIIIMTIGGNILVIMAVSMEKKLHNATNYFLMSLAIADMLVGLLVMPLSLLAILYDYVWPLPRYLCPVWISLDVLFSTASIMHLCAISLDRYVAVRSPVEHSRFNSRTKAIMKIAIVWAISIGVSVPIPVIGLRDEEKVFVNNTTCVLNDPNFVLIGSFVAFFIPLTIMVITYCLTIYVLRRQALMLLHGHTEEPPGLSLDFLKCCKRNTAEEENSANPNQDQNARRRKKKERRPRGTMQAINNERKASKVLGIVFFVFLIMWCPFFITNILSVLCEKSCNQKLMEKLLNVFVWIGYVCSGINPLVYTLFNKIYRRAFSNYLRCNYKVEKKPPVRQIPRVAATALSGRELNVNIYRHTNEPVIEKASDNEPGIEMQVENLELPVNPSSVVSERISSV

Brc1ccc(OC2CN(c3c4c(nc5ccnn35)CCNCC4)C2)cc1 [Example 35.2]
pEC50: 6.74

N#CC1CN(c2c3c(nc4ccnn24)CCNCC3)C1 [Example 22, 1-(6,7,8,9-Tetrahydro-5H-1,4,7,10a-tetraaza-cyclohepta[f]inden-10-yl)-azetidine-3-carbonitrile]
pEC50: 5.99

CC1(C)CCCN(C(=O)C2CN(c3c4c(nc5ccnn35)CCNCC4)C2)C1 [Example 31.30]
pEC50: 6.47

CN(Cc1ccn(C)n1)C(=O)C1CN(c2c3c(nc4ccnn24)CCNCC3)C1 [Example 31.54]
pEC50: 6.97

Cc1cccnc1CN(C)C(=O)C1CN(c2c3c(nc4ccnn24)CCNCC3)C1 [Example 31.196]
pEC50: 6.71

FC(F)(F)c1cccc(N2CCN(c3c4c(nc5ccnn35)CCNCC4)CC2)c1 [Example 7.3]
pEC50: 6.32

CN1CCc2nc3ccnn3c(N3CC(C(=O)N[C@H]4CC[C@H](N(C)C)CC4)C3)c2CC1 [Example 36.16]
pEC50: 6.55

CN(Cc1ccc(C(C)(C)C)cc1)C(=O)C1CN(c2c3c(nc4ccnn24)CCNCC3)C1 [Example 31.162]
pEC50: 6.73

CN1CCc2nc3ccnn3c(N3CC(C(=O)N4CCN(C(=O)C5CCCC5)CC4)C3)c2CC1 [Example 36.58]
pEC50: 6.35

CNC1CCN(C(=O)C2CN(c3c4c(nc5ccnn35)CCNCC4)C2)CC1 [Example 37.14]
pEC50: 9.00

Fc1ccc(C(F)(F)F)cc1OC1CN(c2c3c(nc4ccnn24)CCNCC3)C1 [Example 35.36]
pEC50: 7.05

O=C(C1CN(c2c3c(nc4ccnn24)CCNCC3)C1)N1CCCC(c2ccccc2)CC1 (centres unmarked) [Example 31.152]
pEC50: 7.11

Fc1cc(Cl)ccc1OCC1CN(c2c3c(nc4ccnn24)CCNCC3)C1 [Example 15.12]
pEC50: 8.05

CC(C)COC1CN(c2c3c(nc4ccnn24)CCNCC3)C1 [Example 20.1]
pEC50: 6.44

Cc1ccccc1OCC1CN(c2c3c(nc4ccnn24)CCNCC3)C1 [Example 15.1]
pEC50: 8.22

CC(C)C(C)NC(=O)C1CN(c2c3c(nc4ccnn24)CCNCC3)C1 (centres unmarked) [Example 37.77]
pEC50: 7.02

O=C(C1CN(c2c3c(nc4ccnn24)CCNCC3)C1)N1CCN(c2ccc(F)cc2)CC1 [Example 37.8]
pEC50: 8.10

O=C(NCCN1CCCCC1)C1CN(c2c3c(nc4ccnn24)CCNCC3)C1 [Example 37.81]
pEC50: 7.40

O=C(C1CN(c2c3c(nc4ccnn24)CCNCC3)C1)N1CCCCC1c1cccnc1 (centres unmarked) [Example 31.187]
pEC50: 6.00

CN(C(=O)C1CN(c2c3c(nc4ccnn24)CCNCC3)C1)C1CCCCC1 [Example 31.179]
pEC50: 5.77

O=C(NC1(c2ccccc2)CC1)C1CN(c2c3c(nc4ccnn24)CCNCC3)C1 [Example 31.92]
pEC50: 6.04

COc1cccc(OC2CN(c3c4c(nc5ccnn35)CCNCC4)C2)c1Cl [Example 35.33]
pEC50: 7.05

Cc1cnn2c(N3CC(C(=O)N4CCC(Oc5ccccc5)CC4)C3)c3c(nc12)CCNCC3 [Example 31.244]
pEC50: 7.21

O=C(C1CN(c2c3c(nc4ccnn24)CCNCC3)C1)N1CCCC(Cc2ccc(F)cc2)C1 (centres unmarked) [Example 31.101]
pEC50: 7.21

CCc1cnn2c(N3CCCCC3)c3c(nc12)CCNCC3 [Example 25, 3-Ethyl-10-piperidin-1-yl-6,7,8,9-tetrahydro-5H-1,4,7,10a-tetraaza-cyclohepta[f]indene]
pEC50: 6.97

CCc1ccc(CN(C)C(=O)C2CN(c3c4c(nc5ccnn35)CCNCC4)C2)cc1 [Example 31.170]
pEC50: 7.19

COc1ccc(OCC2CN(c3c4c(nc5ccnn35)CCNCC4)C2)c(F)c1 [Example 15.9]
pEC50: 8.15

CC(C)CN1CCN(C(=O)C2CN(c3c4c(nc5ccnn35)CCNCC4)C2)CC1 [Example 37.15]
pEC50: 8.52

O=C(NCCC(F)(F)F)C1CN(c2c3c(nc4ccnn24)CCNCC3)C1 [Example 37.63]
pEC50: 7.08

CC(C)CNC(=O)C1CN(c2c3c(nc4ccnn24)CCNCC3)C1 [Example 37.78]
pEC50: 7.09

c1cc2nc3c(c(N4CCOCC4)n2n1)CCNCC3 [Example 7, 10-Morpholin-4-yl-6,7,8,9-tetrahydro-5H-1,4,7,10a-tetraaza-cyclohepta[f]indene]
pEC50: 5.59

O=C(NCCCC(F)(F)F)C1CN(c2c3c(nc4ccnn24)CCNCC3)C1 [Example 37.66]
pEC50: 7.38

CC(=O)NC1CCN(C(=O)C2CN(c3c4c(nc5ccnn35)CCNCC4)C2)C1 (centres unmarked) [Example 37.27]
pEC50: 7.85

CCC(C)(C)NC(=O)C1CN(c2c3c(nc4ccnn24)CCNCC3)C1 [Example 37.54]
pEC50: 6.93

CC1CN(C(=O)C2CN(c3c4c(nc5ccnn35)CCNCC4)C2)CC(C)N1C (centres unmarked) [Example 37.4]
pEC50: 8.40

COC[C@H]1CCN1c1c2c(nc3ccnn13)CCNCC2 [Example 8.1]
pEC50: 7.12

CC(C)CN1CCN(C(=O)C2CN(c3c4c(nc5ccnn35)CCN(C)CC4)C2)CC1 [Example 36.17]
pEC50: 7.06

Fc1cccc(Cl)c1OCC1CN(c2c3c(nc4ccnn24)CCNCC3)C1 [Example 15.14]
pEC50: 8.70

Fc1ccc(OCC2CN(c3c4c(nc5ccnn35)CCNCC4)C2)cc1Cl [Example 15.11]
pEC50: 7.70

CN1CCc2nc3ccnn3c(N3CC(C(=O)N4CC[C@H]5CNC[C@H]54)C3)c2CC1 [Example 36.40]
pEC50: 6.55

Fc1cc(F)c2nc(C3CN(c4c5c(nc6ccnn46)CCNCC5)C3)[nH]c2c1 [Example 34.24]
pEC50: 6.87

CCOc1ccccc1OC1CN(c2c3c(nc4ccnn24)CCNCC3)C1 [Example 35.37]
pEC50: 7.33

O=C(NCC1CCCC1)C1CN(c2c3c(nc4ccnn24)CCNCC3)C1 [Example 37.103]
pEC50: 7.17

O=C(C1CN(c2c3c(nc4ccnn24)CCNCC3)C1)N1CCC(c2ccc(Cl)cc2)CC1 [Example 31.115]
pEC50: 7.26

O=C(C1CN(c2c3c(nc4ccnn24)CCNCC3)C1)N1CCC(c2cccc(Cl)c2)CC1 [Example 31.111]
pEC50: 7.25

O=C(C1CN(c2c3c(nc4ccnn24)CCNCC3)C1)N1CCC(O)(c2cccc(C(F)(F)F)c2)CC1 [Example 31.226]
pEC50: 7.13

CN1CCc2nc3ccnn3c(N3CC(C(=O)N4CCC(F)CC4)C3)c2CC1 [Example 36.29]
pEC50: 6.55

O=C(C1CN(c2c3c(nc4ccnn24)CCNCC3)C1)N1CCCCC1 [Example 31.15]
pEC50: 6.47

CCc1cnn2c(N3CC(C(=O)N(C)C)C3)c3c(nc12)CCNCC3 [Example 26, 1-(3-Ethyl-6,7,8,9-tetrahydro-5H-1,4,7,10a-tetraaza-cyclohepta[f]inden-10-yl)-azetidine-3-carboxylic acid dimethylamide]
pEC50: 8.00

OC1CN(c2c3c(nc4ccnn24)CCNCC3)C1 [Example 1.2]
pEC50: 6.90

O=C(C1CCCN(c2c3c(nc4ccnn24)CCNCC3)C1)N1CCCCC1 (centres unmarked) [Example 1.61]
pEC50: 5.33

O=C(C1CN(c2c3c(nc4ccnn24)CCNCC3)C1)N1CCCCC(F)(F)C1 [Example 41, (3,3-Difluoro-perhydro-azepin-1-yl)-[1-(6,7,8,9-tetrahydro-5H-1,4,7,10a-tetraaza-cyclohept[f]inden-10-yl)-azetidin-3-yl]-methanone]
pEC50: 8.15

C#CCCNC(=O)C1CN(c2c3c(nc4ccnn24)CCNCC3)C1 [Example 37.48]
pEC50: 6.85

CNC1CCN(C(=O)C2CN(c3c4c(nc5ccnn35)CCNCC4)C2)C1 (centres unmarked) [Example 37.26]
pEC50: 8.70

CN(Cc1ccc(C#N)cc1)C(=O)C1CN(c2c3c(nc4ccnn24)CCNCC3)C1 [Example 31.2]
pEC50: 7.85

O=C(C1CN(c2c3c(nc4ccnn24)CCNCC3)C1)N1CCC2(CCCC2)CC1 [Example 31.41]
pEC50: 7.24

c1cc2c3c(cccc3c1)CN(c1c3c(nc4ccnn14)CCNCC3)C2 [Example 1.50]
pEC50: 6.03

c1cc2nc3c(c(N4CCC4)n2n1)CCNCC3 [Example 7.4]
pEC50: 8.30

CC(C)CC(C)NC(=O)C1CN(c2c3c(nc4ccnn24)CCNCC3)C1 (centres unmarked) [Example 37.99]
pEC50: 7.04

CN(Cc1ccc(F)cc1)C(=O)C1CN(c2c3c(nc4ccnn24)CCNCC3)C1 [Example 31.96]
pEC50: 7.59

COc1ccc2c(c1)CCN(c1c3c(nc4ccnn14)CCNCC3)C2 [Example 1.23]
pEC50: 6.28

c1ccc(CC2CN(c3c4c(nc5ccnn35)CCNCC4)C2)nc1 [Example 18, 10-(3-Pyridin-2-ylmethyl-azetidin-1-yl)-6,7,8,9-tetrahydro-5H-1,4,7,10a-tetraaza-cyclohepta[f]indene]
pEC50: 6.35

Cc1ccc(F)c(OCC2CN(c3c4c(nc5ccnn35)CCNCC4)C2)c1F [Example 15.24]
pEC50: 7.27

c1cc2nc3c(c(N4CCCC4)n2n1)CCNCC3 [Example 7.1]
pEC50: 6.12

Cc1ccc(OC2CN(c3c4c(nc5ccnn35)CCNCC4)C2)c(C)c1 [Example 35.6]
pEC50: 6.58

CC(=O)N1CCN(C(=O)C2CN(c3c4c(nc5ccnn35)CCNCC4)C2)CC1 [Example 37.36]
pEC50: 8.00

COc1ccc(OCC2CN(c3c4c(nc5ccnn35)CCNCC4)C2)c(Cl)c1 [Example 15.16]
pEC50: 8.52

O=C(C1CN(c2c3c(nc4c(Br)cnn24)CCNCC3)C1)N1CCC2(CCCCC2)C1 [Example 31.134]
pEC50: 6.93

CN1CCc2nc3ccnn3c(N3CC(C(=O)N4CCCNCC4)C3)c2CC1 [Example 36.59]
pEC50: 6.76

O=C(C1CN(c2c3c(nc4ccnn24)CCNCC3)C1)N1CCN(c2ccccc2)CC1 [Example 37.34]
pEC50: 8.22

CC(=O)N1CCN(C(=O)C2CN(c3c4c(nc5ccnn35)CCN(C)CC4)C2)CC1 [Example 36.52]
pEC50: 6.74

CC1C=CC(C)N1C(=O)C1CN(c2c3c(nc4ccnn24)CCNCC3)C1 (centres unmarked) [Example 31.192]
pEC50: 6.44

CN(Cc1ccc2ccccc2c1)C(=O)C1CN(c2c3c(nc4ccnn24)CCNCC3)C1 [Example 31.169]
pEC50: 7.48

COc1ccc(C2(CNC(=O)C3CN(c4c5c(nc6ccnn46)CCNCC5)C3)CCCCC2)cc1 [Example 31.185]
pEC50: 5.83

O=C(C1CN(c2c3c(nc4ccnn24)CCNCC3)C1)N1CCC(Oc2ccccc2Cl)CC1 [Example 31.145]
pEC50: 7.03

CN1CCN(C(=O)C2CN(c3c4c(nc5ccnn35)CCNCC4)C2)CC1 [Example 37.35]
pEC50: 8.40

O=C(C1CN(c2c3c(nc4ccnn24)CCNCC3)C1)N1CC2CC(c3ccccc3)(C2)C1 [Example 31.232]
pEC50: 7.02
